Results taken from ChEMBL document CHEMBL1201862, “PubChem BioAssay data set” (2004).
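Where inhibition never reached the appropriate level, the endpoint shown equals the highest concentration tested. Otherwise, values were interpolated linearly from a five-concentration, 48-hour dose response in 96-well plates. GI50 = concentration required for 50% inhibition of growth.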 Activity calls are given as the source filed them. Rule as the data show it: active = GI50 up to about 1.1 µM and inactive = higher.

What was measured:
Test in all cases: NCI anticancer screen, dose series, 48 h
CAKI-1 = test system: CAKI-1
A498 = test system: A498
CCRF-CEM = test system: CCRF-CEM
EKVX = test system: EKVX
MDA-MB-435 = test system: MDA-MB-435
NCI/ADR-RES = test system: NCI/ADR-RES
HOP-62 = test system: HOP-62
SK-MEL-2 = test system: SK-MEL-2
SK-MEL-28 = test system: SK-MEL-28
K562 = test system: K562
MOLT-4 = test system: MOLT-4
RXF 393 = test system: RXF 393
UO-31 = test system: UO-31
PC-3 = test system: PC-3
MDA-MB-231 = test system: MDA-MB-231
SR = test system: SR
SNB-75 = test system: SNB-75
Hs-578T = test system: Hs-578T
Malme-3M = test system: Malme-3M
NCI-H226 = test system: NCI-H226

## C#C[C@]1(O)CC[C@H]2[C@@H]3CCC4=C/C(=N/OC(=O)c5cccc6c(=O)c7ccccc7[nH]c56)CCC4[C@H]3CC[C@@]21CC (stereo not given in full)
CAKI-1
  GI50: 32.4 µM (inactive)
A498
  GI50: 10.1 µM (inactive)
CCRF-CEM
  GI50: 8.05 µM (inactive)
EKVX
  GI50: 22.2 µM (inactive)
MDA-MB-435
  GI50: 26.5 µM (inactive)
NCI/ADR-RES
  GI50: 15.8 µM (inactive)
HOP-62
  GI50: 49.1 µM (inactive)
SK-MEL-2
  GI50: 32.4 µM (inactive)
SK-MEL-28
  GI50: 22 µM (inactive)
K562
  GI50: 10.9 µM (inactive)
MOLT-4
  GI50: 4.3 µM (inactive)
RXF 393
  GI50: 2.34 µM (inactive)
UO-31
  GI50: 23.2 µM (inactive)
PC-3
  GI50: 18.5 µM (inactive)
MDA-MB-231
  GI50: 54.8 µM (inactive)
SR
  GI50: 3.25 µM (inactive)
SNB-75
  GI50: 9.18 µM (inactive)
Hs-578T
  GI50: > 100 µM (inactive)
Malme-3M
  GI50: 34.7 µM (inactive)
NCI-H226
  GI50: > 48.9 µM (inactive)

## CC(NCCN(C)C)C1CCC2C3CCc4cc(O)ccc4C3CCC12C (stereo not given)
CAKI-1
  GI50: 2.07 µM (inactive)
A498
  GI50: 4.01 µM (inactive)
CCRF-CEM
  GI50: 0.723 µM (active)
EKVX
  GI50: 5.19 µM (inactive)
MDA-MB-435
  GI50: 2.05 µM (inactive)
NCI/ADR-RES
  GI50: 2.86 µM (inactive)
HOP-62
  GI50: 3.24 µM (inactive)
SK-MEL-2
  GI50: 1.91 µM (inactive)
SK-MEL-28
  GI50: 2.19 µM (inactive)
K562
  GI50: 1.86 µM (inactive)
MOLT-4
  GI50: 1.85 µM (inactive)
RXF 393
  GI50: 1.85 µM (inactive)
UO-31
  GI50: 1.81 µM (inactive)
PC-3
  GI50: 2.82 µM (inactive)
MDA-MB-231
  GI50: 1.97 µM (inactive)
SR
  GI50: 1.44 µM (inactive)
SNB-75
  GI50: 3.14 µM (inactive)
Hs-578T
  GI50: 4.17 µM (inactive)
Malme-3M
  GI50: 1.68 µM (inactive)
NCI-H226
  GI50: 17.8 µM (inactive)

## NS(=O)(=O)c1ccc(/N=N/c2nc3[nH]cnc(=S)c3[nH]2)cc1
CAKI-1
  GI50: 1.42 µM (inactive)
A498
  GI50: 23 µM (inactive)
CCRF-CEM
  GI50: 0.0902 µM (active)
EKVX
  GI50: 2.21 µM (inactive)
MDA-MB-435
  GI50: 0.975 µM (active)
NCI/ADR-RES
  GI50: 0.365 µM (active)
HOP-62
  GI50: 0.564 µM (active)
SK-MEL-2
  GI50: 0.971 µM (active)
SK-MEL-28
  GI50: 10.6 µM (inactive)
K562
  GI50: 0.3 µM (active)
MOLT-4
  GI50: 0.134 µM (active)
RXF 393
  GI50: 1.03 µM (active)
UO-31
  GI50: 0.849 µM (active)
PC-3
  GI50: 3.73 µM (inactive)
MDA-MB-231
  GI50: 1.21 µM (inactive)
SR
  GI50: 0.0803 µM (active)
SNB-75
  GI50: 2.05 µM (inactive)
Hs-578T
  GI50: 6.41 µM (inactive)
Malme-3M
  GI50: 1.93 µM (inactive)
NCI-H226
  GI50: 4.65 µM (inactive)

## c1ccc(/N=C2\SC(c3ccccc3)CN2C23CC4CC(CC(C4)C2)C3)cc1 (stereo not given)
CAKI-1
  GI50: > 100 µM (inactive)
A498
  GI50: > 100 µM (inactive)
CCRF-CEM
  GI50: > 100 µM (inactive)
EKVX
  GI50: > 100 µM (inactive)
MDA-MB-435
  GI50: > 100 µM (inactive)
NCI/ADR-RES
  GI50: > 100 µM (inactive)
HOP-62
  GI50: > 100 µM (inactive)
SK-MEL-2
  GI50: > 100 µM (inactive)
SK-MEL-28
  GI50: > 100 µM (inactive)
K562
  GI50: > 100 µM (inactive)
MOLT-4
  GI50: > 100 µM (inactive)
RXF 393
  GI50: > 100 µM (inactive)
UO-31
  GI50: > 100 µM (inactive)
PC-3
  GI50: > 100 µM (inactive)
MDA-MB-231
  GI50: > 100 µM (inactive)
SR
  GI50: > 100 µM (inactive)
SNB-75
  GI50: > 100 µM (inactive)
Hs-578T
  GI50: > 100 µM (inactive)
Malme-3M
  GI50: > 100 µM (inactive)
NCI-H226
  GI50: > 100 µM (inactive)

## C[C@H](CCC(=O)O)[C@H]1CC[C@@]2(C)[C@@H]3C(=O)C[C@H]4C(C)(C)[C@@H](O)CC[C@]4(C)[C@H]3C(=O)C[C@]12C
CAKI-1
  GI50: > 100 µM (inactive)
A498
  GI50: > 100 µM (inactive)
CCRF-CEM
  GI50: > 100 µM (inactive)
EKVX
  GI50: > 100 µM (inactive)
MDA-MB-435
  GI50: > 100 µM (inactive)
NCI/ADR-RES
  GI50: > 100 µM (inactive)
HOP-62
  GI50: > 100 µM (inactive)
SK-MEL-2
  GI50: > 100 µM (inactive)
SK-MEL-28
  GI50: > 100 µM (inactive)
K562
  GI50: > 100 µM (inactive)
MOLT-4
  GI50: > 100 µM (inactive)
RXF 393
  GI50: > 100 µM (inactive)
UO-31
  GI50: 13.9 µM (inactive)
PC-3
  GI50: > 100 µM (inactive)
MDA-MB-231
  GI50: > 100 µM (inactive)
SR
  GI50: > 100 µM (inactive)
SNB-75
  GI50: > 100 µM (inactive)
Hs-578T
  GI50: 41.8 µM (inactive)
Malme-3M
  GI50: > 100 µM (inactive)
NCI-H226
  GI50: > 100 µM (inactive)
